According to patent US9974782B2, “Phosphodiesterase inhibitors and uses thereof” (THE TRUSTEES OF COLUMBIA UNIVERSITY IN THE CITY OF NEW YORK, priority 2008, dated 2018):

Assays:
APP/PS1 mice = test: Contextual and cued fear conditioning; type: in vivo, mouse; conditions: for effect on contextual fear memory in words: APP/PS1 (transgenic) mice
Experimental: Given that sildenafil reversed LTP deficits in 3-month-old APP/PS1, it was then tested whether the inhibitor reversed the cognitive defects in these animals. As reported above sildenafil offers the advantage of crossing the BBB and therefore it can be easily utilized in behavioural experiments. Three-month-old mice were divided into 4 groups: APP/PS1 with sildenafil, APP/PS1 with vehicle, WT with sildenafil and WT with vehicle. Sildenafil and vehicle control solutions were administered i.p. at a concentration of 3 mg/kg. This concentration was chosen based on previous studies showing that these amounts of sildenafil raise hippocampal cGMP levels and improve memory in aged rats^A6 and mice^A7 independent of vascular effects^A6. The effects of acute administration of sildenafil was first examined on fear-conditioning learning, a type of learning that is impaired in several AD mouse models^A14 and depends on hippocampus and amygdala. The hippocampus is indispensable for contextual fear conditioning^A15, a form of associative learning in which mice must associate a neutral stimulus with an aversive one. Mice were trained to associate neutral stimuli with an aversive one. They were placed in a new context (fear conditioning box), exposed to a white noise cue (CS) paired with a mild foot shock (US), and injected with sildenafil immediately after the training. Fear learning was assessed twenty-four hours later by measuring freezing behaviour—the absence of all movement except for that necessitated by breathing—in response to representation of the context or of the auditory cue within a completely different context. No difference was found in the freezing behaviour among the four groups of mice before the training phase (FIG. 2A). Twenty-four hours later, a decrease in the freezing behaviour of vehicle-treated APP/PS1 mice compared with that of vehicle-treated WT littermates in the analysis of the contextual learning was observed (FIG. 2A). […] Fear conditioning, a hippocampus-independent task A^15, was next tested and no difference in freezing among the 4 groups was found, as APP/PS1 mice are known to have a selective hippocampus-dependent impairment in associative learning^A14.
Sildenafil was tested to determine whether a brief course of treatment can provide long term benefits. The PDE5 inhibitor was examined to see if it maintains its protective effect against synaptic dysfunction and memory loss. In these experiments, both APP/PS1 and WT mice of 3 months of age were injected intraperitoneally with 3 mg/kg/day sildenafil for 3 weeks, then the treatment was stopped for 9-12 weeks prior to testing. The mice were next subjected to training for contextual learning. […] There were no differences between the 4 groups in the cued conditioning test.
Three-month-old APP/PS1 and WT mice were separated into 4 groups: APP/PS1 mice treated with vehicle, APP/PS1 mice treated with PDE inhibitor, WT mice treated with vehicle, and WT mice treated with PDE inhibitor. […] In the remaining experiments, sildenafil was injected via i.p. The drug was administered either acutely or for 1 course of 3 week treatment. For assessment of the short-term effects of sildenafil, the drug was given at a concentration of 3 mg/kg immediately after the training. This dose yields concentrations of ˜2.5 μM cGMP in the hippocampus^A53. For assessment of long-term effects, sildenafil was given daily by i.p. injection at a concentration of 3 mg/kg for 3 weeks and then treatment was stopped for 9-12 weeks prior to behavioral testing. Contextual and cued fear conditioning was performed for 3 days. Radial-arm water-maze (RAWM) was performed for 3 weeks. Then, the animals were sacrificed for electrophysiological recordings. To decide the time of administration of sildenafil in the acute experiments, a series of studies was performed in which the inhibitor was injected i.p. at 5 min before the electric shock or at 5 min before the first acquisition trial with the radial arm water maze. […]

[1] = tested on: CA1 region of hippocampal slices from APP/PS1 and WT mice; test: Electrophysiological analysis (BST, LTP) of hippocampal slices perfused with inhibitor; type: cell-based, mouse; conditions: for effect on LTP impairment in words: slices from APP/PS1 (transgenic) mice, 10 min prior to tetanus
[2] = Pharmacokinetics testing, plasma and brain (LC-MS/MS)
Experimental: The pharmacokinetic studies were conducted in male BABL/c mice. The blood and brain samples were collected at predetermined times from three mice per time point. […] An LC-MS/MS method was developed to determine these compounds in plasma and brain samples.
Quantification was achieved by the internal standard method using peak area ratios of the analysis to the internal standard in plasma and brain. Concentrations were calculated using a weighted least-squares linear regression (W=1/×2). The major pharmacokinetic parameters were calculated and the brain-to-plasma distribution ratios were estimated.
The PDE5 inhibitor was prepared by dissolving the test article in 0.5% methyl cellulose to yield final concentrations at 5 mg/mL for PO administration.
Mice were sacrificed by cervical dislocation after blood harvest. The plasma were separated via centrifugation (4° C., 3500 rpm, 10 min) and stored in −80° C. before analysis.
Frozen unknown plasma samples were thawed at room temperature and vortexed thoroughly. With a pipette, 25 μL of plasma was transferred into a 1.5 mL Eppendorf tube. To each sample, 25 μL of methanol and 25 μL of the internal standard were added, followed by the addition of 100-μL methanol. The sample mixture was vortexed for approximately 1 min. After centrifugation at 11000 g for 5 min, the upper organic layer was transferred to a glass tube and evaporated at 40° C. under a gentle stream of nitrogen. Residues were dissolved in 150 μL of the mobile phase, and mixed in a vortex mixer. A 20-μL aliquot of the resulting solution was injected onto the LC/MS/MS system for analysis.
Brains were collected immediately after mice death. The brains were excised, weighed, and rinsed by cold saline and then frozen at −80° C. until further process for LC/MS/MS analysis.
On the day of the assay, the frozen tissue samples were thawed unassisted at room temperature. When completely thawed, each tissue sample of 200 mg was weighed and placed into a plastic tube. Methanol (1.0 mL) was added to facilitate homogenization, which was conducted using a Fluko F6/10 superfine homogenizer for approximately 1 min. Then, the homogenized samples were vortexed for 1 min. A 25-μL aliquot of the homogenized samples was transferred into an Eppendorf tube. To each sample, 25 μL of methanol and 25 μL of the internal standard were added. The sample mixture centrifuged at 11000 g for 5 min. A 20-μL aliquot of the supernatants was diluted to 80 μL or 60 μL with the mobile phase and a 10-μL aliquot was injected onto the LC/MS/MS system for analysis.
We then investigated the PK and BBB penetration capability of YF012403. After p.o. administration at 50 mg/kg to BABL/c mice, plasma and brain concentrations were determined by the LC-MS/MS.

[3] = male, BABL/c, mouse, in vivo, po, 50 mg/kg, half-life in the brain
[4] = male, BABL/c, mouse, in vivo, po, 50 mg/kg, half-life in the plasma
[5] = 3 month-old WT, sildenafil 3 mg/Kg or tadalafil 1 mg/Kg i.p.
[6] = APP/PS1, 3 mg/Kg i.p. for 3 weeks at 3 months, tested 9-12 weeks later
[7] = WT, 3 mg/Kg i.p. for 3 weeks at 3 months, tested 9-12 weeks later
[8] = APP/PS1 slices, sildenafil 50 nM
[9] = WT slices, 120 min after tetanus, sildenafil 50 nM, tadalafil 50 nM, IC354 1 μM
[10] = WT slices, sildenafil or tadalafil 50 nM
[11] = slices of 3-month-old APP/PS1 mice, 120 min after tetanus, 10 min perfusion (sildenafil 50 nM, tadalafil 50 nM, IC354 1 μM)

Q: Which “effect on contextual fear memory in words” value (APP/PS1 mice) does the source give for `COc1ccc(CNc2c(CO)cnc3c(C4CC4)cc(C#N)cc23)cc1Cl` [YF012403, 4-(3-chloro-4-methoxybenzylamino)-8-cyclopropyl-3-(hydroxymethyl)-quinoline-6-carbonitrile] here?
A: The value was “attenuated”.

Q: And the “effect on LTP impairment in words” value [1]?
A: The value was “rescues the defect in LTP”.

Q: And the Kp ([2]; male, BABL/c, mouse, brain, oral, 50 mg/kg)?
A: Its Kp is 0.41.

Q: What about the Cmax ([2]; male, BABL/c, mouse, in vivo, po, 50 mg/kg) of the same compound?
A: Its Cmax is 385 ng/g.

Q: And the half-life [2, 3]?
A: The half-life was 1.04 h.

Q: And the half-life [2, 4]?
A: Its half-life is 1.33 h.

Q: What about the “log BB” value ([2]; mouse, in vivo) of the same compound?
A: Its value is −0.38.

Q: What about the “time of peak plasma concentration after dosing” value ([2]; p.o., 50 mg/kg, BABL/c mice) of the same compound?
A: Its value is 0.5 h.

Q: With `CCCc1nn(C)c2c(=O)[nH]c(-c3cc(S(=O)(=O)N4CCN(C)CC4)ccc3OCC)nc12` [sildenafil, 5-[2-ethoxy-5-(4-methyl-1-piperazinylsulphonyl)phenyl]-1-methyl-3-n-propyl-1,6-dihydro-7H-pyrazolo[4,3-d]pyrimidin-7-one] as the compound, how does the “minimum time needed for a positive effect on contextual fear memory” value (APP/PS1 mice; 3 mg/kg, treated at 3 months, tested at 6-8 months) read?
A: Its value is 2 weeks.

Q: And the “minimum concentration needed to improve contextual fear memory” value (APP/PS1 mice; 3-month-old APP/PS1, acute)?
A: The value was 3 mg/kg.

Q: And the “contextual freezing time as % of vehicle-treated WT mice” value (APP/PS1 mice; 3 month-old APP/PS1, sildenafil 3 mg/Kg i.p. after training, 24 hrs)?
A: The value was “about 87%”.

Q: And the contextual freezing time (APP/PS1 mice; 3 month-old APP/PS1, sildenafil 3 mg/Kg or tadalafil 1 mg/Kg i.p., 24 hrs after training)?
A: Its contextual freezing time is 28.95±3.94%.

Q: What about the “contextual freezing as % of vehicle-treated WT mice” value (from here on “contextual freezing as %”) (APP/PS1 mice; [5]) of the same compound?
A: The value was “about 89%”.

Q: And the contextual freezing time (APP/PS1 mice; [5])?
A: The contextual freezing time was 30.1±3.11%.

Q: What about the “effect on cued conditioning in words” value (APP/PS1 mice; 3 months old APP/PS1 and WT, 3 mg/kg) of the same compound?
A: Its value is “do not affect freezing during cued conditioning”.

Q: What about the “effect on contextual fear memory in words” value (APP/PS1 mice) of the same compound?
A: Its value is “complete”.

Q: What about the “contextual freezing as %” value (APP/PS1 mice; [6]) of the same compound?
A: Its value is ~97%.

Q: And the contextual freezing time (APP/PS1 mice; [6])?
A: The contextual freezing time was 30.32±1.98%.

Q: And the “freezing time as % of vehicle-treated APP/PS1 mice” value (APP/PS1 mice; APP/PS1, injected i.p. 5 min before the electric shock)?
A: Its value is ~90%.

Q: What about the “contextual freezing as %” value (APP/PS1 mice; [7]) of the same compound?
A: Its value is ~104%.

Q: And the contextual freezing time (APP/PS1 mice; [7])?
A: Its contextual freezing time is 32.41±1.88%.

Q: And the “minimum concentration needed to improve contextual fear memory” value (APP/PS1 mice; treated at 3 months, tested at 6-8 months)?
A: The value was 3 mg/kg.

Q: What about the “basal neurotransmission without tetanus as % of vehicle-treated WT slices” value [1, 8] of the same compound?
A: Its value is ~96%.

Q: And the “basal neurotransmission without tetanus, fEPSP % of baseline” value [1, 8]?
A: The value was 99.99±3.71%.

Q: What about the “LTP, fEPSP slope as % of baseline” value [1, 9] of the same compound?
A: The value was 213.26±13.66%.

Q: And the “level of LTP as % of vehicle-treated WT slices” value [1, 9]?
A: Its value is ~99%.

Q: And the “basal synaptic responses without tetanus as % of vehicle-treated WT slices” value [1, 10]?
A: The value was ~97%.

Q: And the “basal synaptic responses without tetanus, fEPSP % of baseline” value [1, 10]?
A: The value was 100.51±2.34%.

Q: What about the “effect on LTP impairment in words” value [1] of the same compound?
A: The value was “reverses LTP impairment”.

Q: What about the “minimum effective dose that completely rescues synaptic plasticity” value ([1]; slices of 3-month-old APP/PS1 mice) of the same compound?
A: The value was 50 nM.

Q: And the “LTP, fEPSP slope as % of baseline” value [1, 11]?
A: The value was 215.08±11.85%.

Q: And the “level of LTP as % of vehicle-treated WT littermates” value [1, 11]?
A: Its value is ~100%.

Q: What about the “LTP as % of vehicle-treated WT slices” value ([1]; slices of 6 month old APP/PS1 mice, 500 nM) of the same compound?
A: Its value is 93%.

Q: What about the “minimum effective dose that completely rescues LTP” value ([1]; slices of 6 month old APP/PS1 mice, 10 min bath application) of the same compound?
A: Its value is 500 nM.

Q: And the “effect on BST (fEPSP slope) in words” value ([1]; slices of 6 month old APP/PS1 mice, different concentrations)?
A: Its value is “do not change fEPSP slope”.

Q: And the half-life [2, 3]?
A: The half-life was 0.84 h.

Q: And the half-life [2, 4]?
A: The half-life was 1.21 h.
